Measured values as given in PubChem BioAssay (NCI).
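Five concentrations, 48 hours, 96-well plates. The concentration for 50% growth inhibition is given as GI50. TGI denotes the concentration required for complete inhibition of growth.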

test system: LOX IMVI melanoma; assay: NCI tumour cell line growth inhibition, 48 h

SMILES | GI50 | TGI
COc1cc(/C=C/c2cc(/C=C/c3ccc(O)c(OC)c3)n(C(=O)Nc3ccc(F)cc3)n2)ccc1O | 0.476 µM | 4.26 µM
CCc1ccc2c(c1)C(=O)c1c-2n(CCCBr)c(=O)c2cc([N+](=O)[O-])ccc12 | > 50 µM | > 50 µM

test system: M14 melanoma; assay: NCI tumour cell line growth inhibition, 48 h

SMILES | TGI | GI50
O=C(Nc1ccccc1)OCCN=C1c2ccccc2C(Br)C(Br)c2ccccc21 (stereo not drawn) | 12.4 µM | –
COc1cc2c(cc1OC)[C@@H]1[C@H](C#N)C(=O)C(C)(C)N1CC2 | > 100 µM | –
COc1cc(/C=C/c2cc(/C=C/c3ccc(O)c(OC)c3)n(C(=O)Nc3ccc(F)cc3)n2)ccc1O | 7.5 µM | 0.46 µM
CCc1ccc2c(c1)C(=O)c1c-2n(CCCBr)c(=O)c2cc([N+](=O)[O-])ccc12 | > 50 µM | > 50 µM
Nn1c(CCCCCCCCc2nnc(COc3ccc(Cl)cc3Cl)n2N)nnc1COc1ccc(Cl)cc1Cl | > 100 µM | –

test system: MALME-3M melanoma; assay: NCI tumour cell line growth inhibition, 48 h

SMILES | TGI | GI50
O=C(Nc1ccccc1)OCCN=C1c2ccccc2C(Br)C(Br)c2ccccc21 (stereo not drawn) | 16.3 µM | –
COc1cc2c(cc1OC)[C@@H]1[C@H](C#N)C(=O)C(C)(C)N1CC2 | > 100 µM | –
COc1cc(/C=C/c2cc(/C=C/c3ccc(O)c(OC)c3)n(C(=O)Nc3ccc(F)cc3)n2)ccc1O | 7.85 µM | 0.743 µM
CCc1ccc2c(c1)C(=O)c1c-2n(CCCBr)c(=O)c2cc([N+](=O)[O-])ccc12 | > 50 µM | 18.5 µM
Nn1c(CCCCCCCCc2nnc(COc3ccc(Cl)cc3Cl)n2N)nnc1COc1ccc(Cl)cc1Cl | > 100 µM | –

test system: MCF7 breast; assay: NCI tumour cell line growth inhibition, 48 h

SMILES | TGI | GI50
O=C(Nc1ccccc1)OCCN=C1c2ccccc2C(Br)C(Br)c2ccccc21 (stereo not drawn) | > 31.6 µM | –
COc1cc2c(cc1OC)[C@@H]1[C@H](C#N)C(=O)C(C)(C)N1CC2 | > 100 µM | –
COc1cc(/C=C/c2cc(/C=C/c3ccc(O)c(OC)c3)n(C(=O)Nc3ccc(F)cc3)n2)ccc1O | 7.66 µM | 0.402 µM
CCc1ccc2c(c1)C(=O)c1c-2n(CCCBr)c(=O)c2cc([N+](=O)[O-])ccc12 | > 50 µM | 19.9 µM
Nn1c(CCCCCCCCc2nnc(COc3ccc(Cl)cc3Cl)n2N)nnc1COc1ccc(Cl)cc1Cl | > 100 µM | –

test system: MDA-MB-231 breast; assay: NCI tumour cell line growth inhibition, 48 h

SMILES | TGI | GI50
O=C(Nc1ccccc1)OCCN=C1c2ccccc2C(Br)C(Br)c2ccccc21 (stereo not drawn) | 20.6 µM | –
COc1cc2c(cc1OC)[C@@H]1[C@H](C#N)C(=O)C(C)(C)N1CC2 | > 100 µM | –
COc1cc(/C=C/c2cc(/C=C/c3ccc(O)c(OC)c3)n(C(=O)Nc3ccc(F)cc3)n2)ccc1O | > 65.3 µM | 2.16 µM
CCc1ccc2c(c1)C(=O)c1c-2n(CCCBr)c(=O)c2cc([N+](=O)[O-])ccc12 | > 50 µM | 45.7 µM
Nn1c(CCCCCCCCc2nnc(COc3ccc(Cl)cc3Cl)n2N)nnc1COc1ccc(Cl)cc1Cl | > 100 µM | –

test system: MDA-MB-435; assay: NCI tumour cell line growth inhibition, 48 h

SMILES | TGI | GI50
O=C(Nc1ccccc1)OCCN=C1c2ccccc2C(Br)C(Br)c2ccccc21 (stereo not drawn) | 17.1 µM | –
COc1cc2c(cc1OC)[C@@H]1[C@H](C#N)C(=O)C(C)(C)N1CC2 | > 100 µM | –
COc1cc(/C=C/c2cc(/C=C/c3ccc(O)c(OC)c3)n(C(=O)Nc3ccc(F)cc3)n2)ccc1O | 0.561 µM | 0.214 µM
CCc1ccc2c(c1)C(=O)c1c-2n(CCCBr)c(=O)c2cc([N+](=O)[O-])ccc12 | > 50 µM | > 50 µM
Nn1c(CCCCCCCCc2nnc(COc3ccc(Cl)cc3Cl)n2N)nnc1COc1ccc(Cl)cc1Cl | > 100 µM | –

test system: MDA-N; assay: NCI tumour cell line growth inhibition, 48 h

SMILES | TGI
O=C(Nc1ccccc1)OCCN=C1c2ccccc2C(Br)C(Br)c2ccccc21 (stereo not drawn) | 17.1 µM
COc1cc2c(cc1OC)[C@@H]1[C@H](C#N)C(=O)C(C)(C)N1CC2 | > 100 µM
Nn1c(CCCCCCCCc2nnc(COc3ccc(Cl)cc3Cl)n2N)nnc1COc1ccc(Cl)cc1Cl | > 100 µM

test system: MOLT-4 leukemia; assay: NCI tumour cell line growth inhibition, 48 h

SMILES | TGI | GI50
O=C(Nc1ccccc1)OCCN=C1c2ccccc2C(Br)C(Br)c2ccccc21 (stereo not drawn) | 5.06 µM | –
COc1cc2c(cc1OC)[C@@H]1[C@H](C#N)C(=O)C(C)(C)N1CC2 | > 100 µM | –
COc1cc(/C=C/c2cc(/C=C/c3ccc(O)c(OC)c3)n(C(=O)Nc3ccc(F)cc3)n2)ccc1O | > 22.8 µM | 0.471 µM
Nn1c(CCCCCCCCc2nnc(COc3ccc(Cl)cc3Cl)n2N)nnc1COc1ccc(Cl)cc1Cl | > 100 µM | –

test system: NCI-H226 lung; assay: NCI tumour cell line growth inhibition, 48 h

SMILES | TGI
O=C(Nc1ccccc1)OCCN=C1c2ccccc2C(Br)C(Br)c2ccccc21 (stereo not drawn) | 19.2 µM
